Data from US11104619B2, “Mixture for treating fertilizers containing urea” (EuroChem Agro GmbH, priority 2015, dated 2021).
Read-outs that look alike come from different tables or passages of the source.

Tests used:
nitrification [1] = assay: Soil incubation trial: nitrate formed from applied urea N; details: for Nitrate, % of the urea applied (13 mg N): Filder loam, 20° C., label gives UI/NI fraction of recommended rate
Procedure: % of the urea applied (13 mg N)

nitrification [2] = assay: Soil incubation trial: cumulative laughing gas (N2O-N) emission; details: for N2O—N cumulative / N2O—N cumulative, % of appl.: 77 mg N applied; for N2O—N cumulative, % of appl.: cumulative over 28 days
nitrification [3] = assay: Soil incubation trial: recovery of applied urea N as ammonium; details: for percentage recovery in the form of ammonium, % of applied urea (13 mg N): 28 days after application, Filder loam pH 6.8, 20° C., 200 kg urea N/ha, label gives UI/NI fraction of recommended rate (0.6 g NBPT, 3.6 g DMPSA per kg urea)
Procedure: % of applied urea (13 mg N)
A determination was carried out 28 days after application of the urea, with the percentage recovery in the form of ammonium being reported.

urease = details: for Ammonia emission, % of the urea applied (77 mg N): Filder loam, 20° C., label gives UI/NI fraction of recommended rate
Procedure: Screening trials were conducted to evaluate the effect of DMPSA and NBPT in the inhibition of urease and inhibition of nitrification, and to find suitable quantities for use. Serving for this purpose was a two-factorial trial design including an unfertilized control sample. For the urease inhibitor NBPT and for the nitrification inhibitor DMPSA, in each case 0%, 33%, 66% and 100% of the application rates recommended for the individual compounds when used alone were used (in this example, 0.6 g of NBPT per kg of urea and, respectively, 3.6 g of DMPSA per kg of urea), giving 16 trials (0%-0% to 100%-100%), in addition to the unfertilized control sample.
Urea fertilizer was delivered in an amount of 200 kg nitrogen per ha, corresponding to 0.51 mg of urea nitrogen per g of soil. The soil used was Filder loam with a pH of 6.8. The incubation trials were carried out at 20° C. For the investigation of trace gases, air supply was passed first through a gas sample, then through a 250 ml capacity glass bottle containing 150 g of soil, subsequently through a gas sample for the outgoing air and through an acid trap, in order, for example, to determine amounts of ammonia. For the measurement of nitrogen, about 20 g of soil were incubated; for the measurement of urea, about 5 g of soil.

In the case of `Cc1cn(C(CC(=O)O)C(=O)O)nc1C` (stereo not drawn) [DMPSA, 2-(N-3,4-dimethylpyrazole)succinic acid], the “inhibition of nitrification (nitrate results)” value (nitrification [1]; 33% of the DMPSA, entire period) is reported as “sufficient to inhibit nitrification during the entire period”, the “Nitrate, % of the urea applied (13 mg N)” value (nitrification [1]; 5 days after application, listed as UI 0 NI 1) is reported as 6% and the “Nitrate, % of the urea applied (13 mg N)” value (nitrification [1]; 5 days after application, listed as UI 0 NI ⅓) is reported as 4%. For the same molecule, the “Nitrate, % of the urea applied (13 mg N)” value (nitrification [1]; 5 days after application, listed as UI 0 NI ⅔) was 5%, the “Nitrate, % of the urea applied (13 mg N)” value (nitrification [1]; 28 days after application, listed as UI 0 NI 1) was 14% and the “Nitrate, % of the urea applied (13 mg N)” value (nitrification [1]; 28 days after application, listed as UI 0 NI ⅓) was 20%. For the same molecule, the “Nitrate, % of the urea applied (13 mg N)” value (nitrification [1]; 28 days after application, listed as UI 0 NI ⅔) was 17%, the “N2O—N cumulative” value (nitrification [2]; 0 days after appl., 150 g soil) was 0 μg N2O—N Bottle^1 and the “emissions of laughing gas” value (nitrification [2]; 33% of DMPSA) was “drastically reduces the emissions of laughing gas”. For the same molecule, the “N2O—N cumulative” value (nitrification [2]; 0.5 days after appl.) was 0 μg N2O—N Bottle^1, the “N2O—N cumulative” value (nitrification [2]; 1 day after appl., listed as UI-0_NI-1) was 3 μg N2O—N Bottle^1 and the “N2O—N cumulative” value (nitrification [2]; 1 day after appl., listed as UI-0_NI-2) was 1 μg N2O—N Bottle^1. The “N2O—N cumulative” value (nitrification [2]; 1 day after appl., listed as UI-0_NI-3) was 1 μg N2O—N Bottle^1, the “N2O—N cumulative” value (nitrification [2]; 2 days after appl., listed as UI-0_NI-1) was 3 μg N2O—N Bottle^1 and the “N2O—N cumulative” value (nitrification [2]; 2 days after appl., listed as UI-0_NI-2) was 1 μg N2O—N Bottle^1. The “N2O—N cumulative” value (nitrification [2]; 2 days after appl., listed as UI-0_NI-3) was 1 μg N2O—N Bottle^1, the “N2O—N cumulative” value (nitrification [2]; 3 days after appl., listed as UI-0_NI-1) was 4 μg N2O—N Bottle^1 and the “N2O—N cumulative” value (nitrification [2]; 3 days after appl., listed as UI-0_NI-2) was 2 μg N2O—N Bottle^1. The “N2O—N cumulative” value (nitrification [2]; 3 days after appl., listed as UI-0_NI-3) was 1 μg N2O—N Bottle^1, the “N2O—N cumulative” value (nitrification [2]; 4 days after appl., listed as UI-0_NI-1) was 4 μg N2O—N Bottle^1 and the “N2O—N cumulative” value (nitrification [2]; 4 days after appl., listed as UI-0_NI-2) was 2 μg N2O—N Bottle^1. For the same molecule, the “N2O—N cumulative” value (nitrification [2]; 4 days after appl., listed as UI-0_NI-3) was 2 μg N2O—N Bottle^1, the “N2O—N cumulative” value (nitrification [2]; 5 days after appl., listed as UI-0_NI-1) was 4 μg N2O—N Bottle^1 and the “N2O—N cumulative” value (nitrification [2]; 5 days after appl., listed as UI-0_NI-2) was 2 μg N2O—N Bottle^1. For the same molecule, the “N2O—N cumulative” value (nitrification [2]; 5 days after appl., listed as UI-0_NI-3) was 2 μg N2O—N Bottle^1, the “N2O—N cumulative” value (nitrification [2]; 6 days after appl., listed as UI-0_NI-1) was 5 μg N2O—N Bottle^1 and the “N2O—N cumulative” value (nitrification [2]; 6 days after appl., listed as UI-0_NI-2) was 2 μg N2O—N Bottle^1. For the same molecule, the “N2O—N cumulative” value (nitrification [2]; 6 days after appl., listed as UI-0_NI-3) was 2 μg N2O—N Bottle^1, the “N2O—N cumulative” value (nitrification [2]; 8 days after appl., listed as UI-0_NI-1) was 6 μg N2O—N Bottle^1 and the “N2O—N cumulative” value (nitrification [2]; 8 days after appl., listed as UI-0_NI-2) was 3 μg N2O—N Bottle^1. For the same molecule, the “N2O—N cumulative” value (nitrification [2]; 8 days after appl., listed as UI-0_NI-3) was 3 μg N2O—N Bottle^1, the “N2O—N cumulative” value (nitrification [2]; 10 days after appl., listed as UI-0_NI-1) was 5 μg N2O—N Bottle^1 and the “N2O—N cumulative” value (nitrification [2]; 10 days after appl., listed as UI-0_NI-2) was 3 μg N2O—N Bottle^1. The “N2O—N cumulative” value (nitrification [2]; 10 days after appl., listed as UI-0_NI-3) was 2 μg N2O—N Bottle^1, the “N2O—N cumulative” value (nitrification [2]; 12 days after appl., listed as UI-0_NI-1) was 5 μg N2O—N Bottle^1 and the “N2O—N cumulative” value (nitrification [2]; 12 days after appl., listed as UI-0_NI-2) was 3 μg N2O—N Bottle^1. The “N2O—N cumulative” value (nitrification [2]; 12 days after appl., listed as UI-0_NI-3) was 3 μg N2O—N Bottle^1, the “N2O—N cumulative” value (nitrification [2]; 14 days after appl., listed as UI-0_NI-1) was 6 μg N2O—N Bottle^1 and the “N2O—N cumulative” value (nitrification [2]; 14 days after appl., listed as UI-0_NI-2) was 3 μg N2O—N Bottle^1. For the same molecule, the “N2O—N cumulative” value (nitrification [2]; 14 days after appl., listed as UI-0_NI-3) was 3 μg N2O—N Bottle^1, the “N2O—N cumulative” value (nitrification [2]; 17 days after appl., listed as UI-0_NI-1) was 6 μg N2O—N Bottle^1 and the “N2O—N cumulative” value (nitrification [2]; 17 days after appl., listed as UI-0_NI-2) was 3 μg N2O—N Bottle^1. The “N2O—N cumulative” value (nitrification [2]; 17 days after appl., listed as UI-0_NI-3) was 3 μg N2O—N Bottle^1, the “N2O—N cumulative” value (nitrification [2]; 18 days after appl., listed as UI-0_NI-1) was 5 μg N2O—N Bottle^1 and the “N2O—N cumulative” value (nitrification [2]; 18 days after appl., listed as UI-0_NI-2) was 1 μg N2O—N Bottle^1. The “N2O—N cumulative” value (nitrification [2]; 18 days after appl., listed as UI-0_NI-3) was 2 μg N2O—N Bottle^1, the “N2O—N cumulative” value (nitrification [2]; 20 days after appl., listed as UI-0_NI-1) was 5 μg N2O—N Bottle^1 and the “N2O—N cumulative” value (nitrification [2]; 20 days after appl., listed as UI-0_NI-2) was 2 μg N2O—N Bottle^1. For the same molecule, the “N2O—N cumulative” value (nitrification [2]; 20 days after appl., listed as UI-0_NI-3) was 2 μg N2O—N Bottle^1, the “N2O—N cumulative” value (nitrification [2]; 22 days after appl., listed as UI-0_NI-1) was 7 μg N2O—N Bottle^1 and the “N2O—N cumulative” value (nitrification [2]; 22 days after appl., listed as UI-0_NI-2) was 3 μg N2O—N Bottle^1. The “N2O—N cumulative” value (nitrification [2]; 22 days after appl., listed as UI-0_NI-3) was 2 μg N2O—N Bottle^1, the “N2O—N cumulative” value (nitrification [2]; 24 days after appl., listed as UI-0_NI-1) was 7 μg N2O—N Bottle^1 and the “N2O—N cumulative” value (nitrification [2]; 24 days after appl., listed as UI-0_NI-2) was 4 μg N2O—N Bottle^1. The “N2O—N cumulative” value (nitrification [2]; 24 days after appl., listed as UI-0_NI-3) was 3 μg N2O—N Bottle^1, the “N2O—N cumulative” value (nitrification [2]; 28 days after appl., listed as UI-0_NI-1) was 8 μg N2O—N Bottle^1 and the “N2O—N cumulative” value (nitrification [2]; 28 days after appl., listed as UI-0_NI-2) was 6 μg N2O—N Bottle^1. The “N2O—N cumulative” value (nitrification [2]; 28 days after appl., listed as UI-0_NI-3) was 4 μg N2O—N Bottle^1, the “N2O—N cumulative, % of appl.” value (nitrification [2]; listed as UI-0_NI-1) was 0.01 % of appl and the “N2O—N cumulative, % of appl.” value (nitrification [2]; listed as UI-0_NI-2) was 0.01 % of appl. The “N2O—N cumulative, % of appl.” value (nitrification [2]; listed as UI-0_NI-3) was 0.00 % of appl, the “inhibition of nitrification (ammonium results)” value (nitrification [3]; 33% of DMPSA, throughout the trial) was “sufficient to inhibit nitrification throughout the trial” and the “percentage recovery in the form of ammonium, % of applied urea (13 mg N)” value (nitrification [3]; listed as UI 0 NI 1) was 69%. For the same molecule, the “percentage recovery in the form of ammonium, % of applied urea (13 mg N)” value (nitrification [3]; listed as UI 0 NI ⅓) was 62%, the “percentage recovery in the form of ammonium, % of applied urea (13 mg N)” value (nitrification [3]; listed as UI 0 NI ⅔) was 63% and the “Ammonia emission, % of the urea applied (77 mg N)” value (“Ammonia emission, %” for short) (urease; 4 days after application, listed as UI 0 NI 1) was 0.7%. The “Ammonia emission, %” value (urease; 4 days after application, listed as UI 0 NI ⅓) was 0.6%, the “Ammonia emission, %” value (urease; 4 days after application, listed as UI 0 NI ⅔) was 0.9% and the “Ammonia emission, %” value (urease; 9 days after application, listed as UI 0 NI 1) was 2.2%. The “Ammonia emission, %” value (urease; 9 days after application, listed as UI 0 NI ⅓) was 3.7%, the “Ammonia emission, %” value (urease; 9 days after application, listed as UI 0 NI ⅔) was 2.4% and the “effect of addition on ammonia emissions” value (urease; addition of DMPSA) was “causes the ammonia emissions to rise”.
